From US4880820A, “Guanine derivatives” (Merck & Co., Inc., priority 1988, dated 1989)
≈ marks a conversion by molar mass, not a printed value. Entries after “also recorded” stand apart in the source; their conditions may differ.

What was measured:
[1] = test system: Herpes simplex virus Type 1 (Schooler); test: Method 1: inhibition of viral induced cytopathology in primary rabbit kidney cell cultures, HSV-1; assay type: cell-based; conditions: Human alphaherpesvirus 1; HSV-1 (Schooler), primary rabbit kidney cells; total suppression of cytopathology in 50% of cultures; read-out: Minimum Effective Concentration
Description: (§1) Method 1: Confluent monolayers of primary rabbit kidney cell cultures were refed with maintenance medium containing serial dilutions of the test compounds and incubated overnight at 37° C. At each dilution, four cultures were challenged with approximately 10 TCID50 HSV-1, four cultures were challenged with approximately 10 TCID50 HSV-2,and two cultures were left as toxicity controls. Cultures were reincubated at 37° C. and observed for viral induced cytopathology at days 5 and 7. Minimum Effective Concentration (μg/ml) is defined as the concentration of antiviral compound required to totally suppress the development of viral cytopathology in 50% of the infected rabbit kidney cell cultures.

[2] = test system: Herpes simplex virus Type 2 (Curtis); test: Method 1: inhibition of viral induced cytopathology in primary rabbit kidney cell cultures, HSV-2; assay type: cell-based; conditions: Human alphaherpesvirus 2; HSV-2 (Curtis), primary rabbit kidney cells; total suppression of cytopathology in 50% of cultures; read-out: Minimum Effective Concentration
Description: as §1

[3] = test system: Herpes simplex virus Type 1 (Schooler); test: Method 2: virus plaque reduction in MRC-5 cells, HSV-1; assay type: cell-based
Description: Method 2: Confluent monolayers of MRC-5 cells were incubated for one hour at 37° C. with 50-100 plaque forming units of the indicated virus. Following incubation, the cell monolayers were refed with maintenance medium containing 2% methyl cellulose and the chemical agent indicated. Duplicate cultures were incubated with each concentration of the chemical agent tested. Following further incubation for 3 days at 37° C., the monolayers were stained and the developed virus plaques were counted. The concentration (μg/ml) of each chemical agent which reduced plaque development by 50% (ED50) was determined.

[4] = test system: Herpes simplex virus type 1 (HSV-1), strain Schooler; test: Parenteral (subcutaneous) treatment of Herpes simplex virus type 1 infection in mice; assay type: in vivo, ICR/Ha mice; conditions: for Avg. Survival Time / Percent Survival: s.c.
Description: (§2) Twenty gram ICR/Ha mice were injected intraperitoneally (ip) with 0.5 ml of a 10^-5 dilution of a stock preparation of Herpes simplex virus type 1 (HSV-1), strain Schooler. This virus challenge infected each animal with approximately 50 to 100 LD50. Starting immediately after virus infection and continuing twice daily for 4 days, each animal was injected subcutaneously in groups of 10 with: 125 μg, 31 μg, 8 μg or 2 μg of compounds A, B or C; or placebo (physiological saline, pH 11.5). All compounds were solubilized in physiological saline, pH 11.5. The mice were observed daily for 15 days at the same time each day and the day of death was recorded for each animal.
Statistical analyses [reference: Liddel, F.D.K., Evaluation of Survival in Challenge Experiments, Microbiol. Rev., 42, 237 (1978)]were performed on survival times transformed by the negative exponential transformation:
t=number of days an animal survived
T=duration of trial (15 days)
A continuity correction was used to account for daily observation:
Within each group, mice surviving through the trial period were assigned equally values of 0.9 and 1.0 to adjust for termination of the trial.
Average survival time per group was calculated from average corrected transformed survival times [fc (t)] as follows:
t avg=[T/log(0.1).[log(1-fc (t)]

[5] = test system: Herpes simplex virus type 1 (HSV-1), strain Schooler; test: Oral treatment of intraperitoneal HSV-1 infection of mice (Example 16); assay type: in vivo, ICR/Ha mice
Description: as §2, with “(i.p.)” for “(ip)”, “LD50 s.” for “LD50.”, “7” for “4”, “treated by oral gavage” for “injected subcutaneously”, “with: 250 μg, 125 μg, 8 μg or 2 μg of (S)-9-(2,3-dihydroxy-1-propoxymethyl)guanine; 500 μg,” for “with:”, “racemic 9-(2,3-dihydroxy-1-propoxymethyl)guanine;” for “compounds A, B or C;”
(§3) The statistical analyses were carried out as described in Example 15.

[6] = test system: Herpes simplex virus type 1 (HSV-1), strain Schooler; test: Oral treatment of intraperitoneal HSV-1 infection of mice (Example 17); assay type: in vivo, ICR/Ha mice; conditions: for Percent Survival: at 15 days
Description: Twenty gram ICR/Ha mice were injected intraperitoneally (i.p.) with 0.5 ml of a 10^-5 dilution of a stock preparation of Herpes Simplex virus type 1 (HSV-1), strain Schooler. This virus challenge infected mice with approximately 50 to 100 LD50. Starting immediately after virus infection and continuing twice daily for 7 days, each animal was treated by oral gavage in groups of 10 with: 500 μg, 125 μg, 31 μg or 8 μg of (S)-9-(2,3-dihydroxy-1propoxymethyl)guanine; 500 μg, 125 μg, 31 μg or 8 μg of acyclovir or placebo (physiological saline, pH 11.5). All compounds were solubilized in physiological saline, pH 11.5.
as §3

[7] = test system: herpes viruses; test: antiviral activity against herpes viruses (general statement)
[8] = 125 μg/dose twice daily for 7 days, 12.5 mg/kg/day
[9] = 500 μg/dose twice daily for 7 days, 50 mg/kg/day

## Nc1nc2c(ncn2COC[C@@H](O)CO)c(=O)[nH]1 [A, (S)-9-(2,3-dihydroxy-1-propoxymethyl)guanine]
[1]
  minimal effective concentration: 0.8 to 1.5 µg/mL
[2]
  minimal effective concentration: 3.1 µg/mL
[3]; A vs B, conclusion of Example 14 (Methods 1 and 2)
  fold more effective than B in protecting cell cultures against HSV-1 infection: 10 to 25 fold
[3]; A vs C, conclusion of Example 14 (Methods 1 and 2)
  fold more active than C in protecting cell cultures against HSV-1 infection: about 2 fold
[3]; Human alphaherpesvirus 1, MRC5, 72 h, HSV-1 (Schooler), MRC-5 cells, 3 days, 50% reduction of plaque development, read-out: ED50 (the source's name)
  EC50: 0.5 µg/mL (≈ 1.96 µM)
[4]; parallel line analysis, not statistically significant
  relative potency of A to C: 2.3
[4]; parallel line analysis, statistically significant
  relative potency of A to B: 5.3
[4]; 2 μg/dose twice daily for 4 days, 0.2 mg/kg/day, ^3 (all): not statistically different from placebo
  Avg. Survival Time: 6.1 days
[4]; 2 μg/dose twice daily for 4 days, 0.2 mg/kg/day, at 15 days
  Percent Survival: 0%
[4]; 8 μg/dose twice daily for 4 days, 0.8 mg/kg/day, ^3 (all): not statistically different from placebo
  Avg. Survival Time: 6.7 days
[4]; 8 μg/dose twice daily for 4 days, 0.8 mg/kg/day, at 15 days
  Percent Survival: 0%
[4]; 31 μg/dose twice daily for 4 days, 3.1 mg/kg/day, ^3 (all): not statistically different from placebo
  Avg. Survival Time: 7.6 days
[4]; 31 μg/dose twice daily for 4 days, 3.1 mg/kg/day, at 15 days
  Percent Survival: 10%
[4]; 125 μg/dose twice daily for 4 days, 12.5 mg/kg/day, ^3 (B, acyclovir): not statistically different from placebo
  Avg. Survival Time: 10.7 days
[4]; 125 μg/dose twice daily for 4 days, 12.5 mg/kg/day, at 15 days (acyclovir not at the same time)
  Percent Survival: 40%
[5]; 2 μg/dose twice daily for 7 days, 0.2 mg/kg/day, ^3 (all): not statistically different from placebo
  Avg. Survival Time: 7.2 days
[5]; 2 μg/dose twice daily for 7 days, 0.2 mg/kg/day, at 15 days
  Percent Survival: 0%
[5]; 8 μg/dose twice daily for 7 days, 0.8 mg/kg/day, ^3 (all): not statistically different from placebo
  Avg. Survival Time: 7.2 days
[5]; 8 μg/dose twice daily for 7 days, 0.8 mg/kg/day, at 15 days
  Percent Survival: 0%
[5]; 31 μg/dose twice daily for 7 days, 3.1 mg/kg/day, ^3 (all): not statistically different from placebo
  Avg. Survival Time: 7.5 days
[5]; 31 μg/dose twice daily for 7 days, 3.1 mg/kg/day, at 15 days (acyclovir not at the same time)
  Percent Survival: 0%
[5]; 125 μg/dose twice daily for 7 days, 12.5 mg/kg/day, ^3 (racemate, acyclovir): not statistically different from placebo
  Avg. Survival Time: 10.2 days
[5]; 125 μg/dose twice daily for 7 days, 12.5 mg/kg/day, at 15 days (acyclovir not at the same time)
  Percent Survival: 20%
[5]; 250 μg/dose twice daily for 7 days, 25 mg/kg/day
  Avg. Survival Time: 9.8 days
[5]; 250 μg/dose twice daily for 7 days, 25 mg/kg/day, at 15 days
  Percent Survival: 10%
[5]; 12.5 mg/kg/day
  protection over placebo-treated animals, as measured by average survival time: conferred significant protection over placebo-treated animals
[5]; 25 mg/kg/day
  protection over placebo-treated animals, as measured by average survival time: conferred significant protection over placebo-treated animals
[6]; 8 μg/dose twice daily for 7 days, 0.8 mg/kg/day, ^b (all): not statistically different from placebo
  Avg. Survival Time: 6.2 days
[6]; 8 μg/dose twice daily for 7 days, 0.8 mg/kg/day
  Percent Survival: 0%
[6]; 31 μg/dose twice daily for 7 days, 3.1 mg/kg/day, ^b (all): not statistically different from placebo
  Avg. Survival Time: 6.9 days
[6]; 31 μg/dose twice daily for 7 days, 3.1 mg/kg/day
  Percent Survival: 0%
[6]; [8]
  Avg. Survival Time: 8.1 days
  Percent Survival: 0%
[6]; [9]
  Avg. Survival Time: 12.9 days
  Percent Survival: 30%
[6]; 12.5 mg/kg/day
  protection over placebo-treated animals, as measured by average survival time: conferred significant protection over placebo-treated animals
[6]; 50 mg/kg/day
  protection over placebo-treated animals, as measured by average survival time: conferred significant protection over placebo-treated animals
[6]; statistically significant
  relative potency to acyclovir: 2.8
[7]; general statement in words
  antiviral (antiherpetic) activity: substantial antiviral activity against various herpes viruses; also recorded: potent antiherpetic activity
[7]; vs 9-(2-hydroxyethoxymethyl)guanine (acyclovir)
  antiviral (antiherpetic) activity compared with acyclovir: significantly greater antiviral activity; also recorded: much more potent
[7]; vs racemic mixture or (R)-enantiomer
  antiherpetic activity compared with the racemic mixture or the (R)-enantiomer: better than the corresponding racemic mixture or the (R)-enantiomer
